Laboratory results taken from article PMC12707061 (National Science Review, 2025).

Tests used:
mPFC VIP neurons [1] = assay: Patch-clamp recordings of mPFC VIP neurons in slices after in vivo drug injection; design: species or system mice; conditions: for resting membrane potential (RMP) of VIP neurons, average: saline controls −58.8 mV
Method: The brain was removed quickly after decapitation and immediately put into ice-cold oxygenated NMDG ACSF. A few minutes later, coronal slices containing the mPFC (300 μm thickness for mice) were sectioned in cold ACSF using a vibratome (VT1200 S, Leica) and then transferred into oxygenated NMDG ACSF at 32°C for incubation and recovery for 10–15 min. […] All chemicals were purchased from Sigma–Aldrich (St. Louis, MO, USA).
(§1) All drugs were dissolved in 0.9% saline and administered by intraperitoneal (i.p.) injection.
For in intro brain slices recording, AAV-Ef1α-DIO-mCherry virus was injected in the mPFC for labeling VIP neurons, and a 26-gauge double guide cannula (center-to-center distance 0.80 mm; RWD, China) was subsequently implanted in the same site of Vip-Cre mice.
For mPFC VIP neuron recordings, brain slices were transferred into the recording chamber filled with ACSF. VIP positive neurons were visualized with differential interference contrast optics (DIC, Olympus BX61WI). The recording pipettes (4-5 MΩ) were pulled with a micropipette puller (P97, Sutter Instrument; USA). […] When the whole-cell record was formed, to record the neuronal firing, the neurons were held at I=0 pA under current-clamp mode; to measure the intrinsic membrane properties, the same neurons were held at […] and spikes were induced by increases of current injection (each step was 5 pA, range –10-45 pA). All recordings were performed for 5 minutes typically.
The specific operation is as follows: using the Threshold search function in the Clampfit software Event Detection, setting the baseline and threshold for identifying the action potential, and then automatically identifying and measuring each action potential. The curve of firing was plotted using MATLAB. All events, including the spike numbers, were finally verified by eye.

mice [2] = assay: TST, FST and OFT in mice with ketamine and pre-treatments; conditions: for locomotion and anxiety-like behaviors during the OFT: 1 h after injection; for effect of pre-treatment on ketamine's decrease of immobility in TST and FST: p-CPA i.p. once per day for 3 days, palonosetron into mPFC 0.5 h before ketamine
Method: Behavioral experiments were performed after 3-4 weeks of viral expression.
For behavioral experiments, C57BL/6 mice were recovered for at least 7 days before behavioral testing. Before micro-infusions, a 26-gauge internal injector with 3 mm projection was placed into the guide cannula, connected via PE tubing to a Hamilton micro-syringe driven by hand. […] The injector cannula was removed 3 min after infusion was finished, and corresponding behavioral tests were performed.
The mice were suspended in a computerized device allowing four animals to be recorded at one time, and were separated in a chamber, both acoustically and visually isolated. To ensure mice could not contact or climb with other things, an individual mouse was suspended 50 cm above the floor by a tail tape that was placed approximately 1 cm from the tip of the tail. The activities of the animals were recorded for 6 minutes by a video recorder. The total duration of immobility at the last 4 minutes of testing time was analyzed by one who was blinded to the test.
The FST apparatus was a clear glass tank (40 cm high and 20 cm in diameter) filled with water (25-26 °C), and the water depth was set to ensure mice could not touch the bottom with their tails or hind limbs. Mice were placed individually into the apparatus and allowed to swim for 6 minutes. The mice were considered immobile when floating in the water without struggling and making only those movements necessary to keep their heads above the water. Total immobility times during the last 4 minutes of the 6-minute testing period were analyzed by a researcher blinded to the test.
Mice were placed in a white open field chamber (38 x 38 x 40 cm) built by an acrylic plate in a room with dim light. The movement of each animal was tracked by a video camera positioned directly above the chamber (Jiliang, Shanghai). Time spent in the center zone of the chamber was a measure of anxiety behavior. Mice were allowed to move freely for 5 minutes in the arena. Total distance and center zone time were automatically analyzed by software (Jiliang, Shanghai).

mPFC VIP neurons [3] = assay: Whole-cell recordings of mPFC VIP neurons with bath application of drugs to brain slices; type: cell-based, mice; conditions: for activation (firing) of VIP neurons: bath application, 5-HT 5 μM, AP5 100 μM, slices from normal mice
Method: Adult (10–16 weeks old) VIP-Cre-expressing mCherry mice with or without a cannula were firstly anesthetized by being injected intraperitoneally with tribromoethanol (250 mg/kg) and then perfused transcardially with 20 mL of ice-cold N-methyl-D-glucamine (NMDG) artificial cerebrospinal fluid (ACSF) solution (oxygenated with 5% CO2 + 95% O2) containing (mM): 93 NMDG, 93 HCl, 2.5 KCl, 10 MgSO4·7H2O, 1.2 NaH2PO4·2H2O, 30 NaHCO3, 25 glucose, 20 HEPES, 5 sodium ascorbate, 3 sodium pyruvate and 2 thioureas, with 0.5 CaCl2·2H2O added (pH: 7.35, 303 mOsm). The brain was removed quickly after decapitation and immediately put into ice-cold oxygenated NMDG ACSF. A few minutes later, coronal slices containing the mPFC (300 μm thickness for mice) were sectioned in cold ACSF using a vibratome (VT1200 S, Leica) and then transferred into oxygenated NMDG ACSF at 32°C for incubation and recovery for 10–15 min. The brain slices were transferred to a normal oxygenated ACSF solution (126 mM NaCl, 2.5 mM KCl, 2 mM MgSO4·7H2O, 1.25 mM NaH2PO4·2H2O, 25 mM NaHCO3, 10 mM glucose, 2 mM CaCl2) at room temperature for 1 h. All chemicals were purchased from Sigma–Aldrich (St. Louis, MO, USA).
For mPFC VIP neuron recordings, brain slices were transferred into the recording chamber filled with ACSF. VIP positive neurons were visualized with differential interference contrast optics (DIC, Olympus BX61WI). The recording pipettes (4-5 MΩ) were pulled with a micropipette puller (P97, Sutter Instrument; USA). For whole-cell patch-clamp recording, the pipette was filled with an internal solution containing (mM) 133 potassium gluconate, 18 NaCl, 0.6 EGTA, 2 Mg·ATP, 0.3 Na3·GTP, 10 Hepes (pH: 7.20, 280-290 mOsm). […]
To investigate the underlying synergistic effects of 5-HT (5 μM, Sigma) and AP5 (100 μM, Sigma) on neuronal excitability and firing, the two drugs were alone or together continuously perfused into the recording chamber using a medicine delivery pipe after a baseline was recorded for 5 min. The spikes were recorded under […] 1 minute after the drugs were delivered. […]

mice [4] = assay: MK-801 alone and with fluoxetine: behavioural tests 24 h after injection; type: in vivo; conditions: single injection, alone
Method: as §1

[5] = tested on: mPFC VIP neurons expressing the hM4Di receptor; assay: Cell-attached recording of hM4Di-expressing mPFC VIP neurons in brain slices; type: cell-based, mice; conditions: 10 μM
Method: In the chemogenetic inhibition assay, we injected the AAV-DIO-hM4Di-mCherry vector into the bilateral mPFC of VIP-Cre mice. […] Behavioral experiments were performed after mice had been allowed to recover for 3 weeks after viral injection (Fig. 5A).

mPFC 5-HT = assay: In vivo real-time microdialysis of mPFC 5-HT; design: species or system mice; conditions: i.p. 10 mg/kg; during the 15 min after injection; baseline ∼100%
PV neurons in the mPFC = assay: Activation/excitability of mPFC PV neurons after ketamine (c-Fos, patch-clamp); type: in vivo, mice; conditions: after ketamine injection
Method: (§2) VIP, parvalbumin (PV) and somatostatin (SST) neurons are the three main types of gamma-aminobutyric acid (GABA)ergic interneurons in the mPFC [63].
(§3) All mice were deeply anesthetized with an overdose of pentobarbital and then transcardially perfused with 0.9% saline solution followed by 4% paraformaldehyde (PFA) in PBS. After 24 h of post-fixation in 4% PFA overnight at 4 °C, brains were subsequently immersed in a 30% sucrose solution for dehydration for 24-48 h. Brains were sectioned coronally at a thickness of 40 μm with a Vibration Microtome (Leica VT1200S). Coronal brain sections were washed in PBS, blocking solution containing 0.5% Triton X-100 and 5% normal bovine serum albumin was dissolved in 1x PBS. After blocking for 1-2 h and washing, brain sections were incubated with the primary antibody rabbit polyclonal anti-c-Fos (1:1000, Synaptic system) for 48 h at 4 °C. After washing, these brain sections were incubated with secondary antibody Alexa Fluor 594-conjugated donkey anti-rabbit IgG (1:1000, Jackson ImmunoResearch) at […]. Cell nuclei were identified using the 4, 6-diamidino-2-phenylindole (DAPI) stain (1:10000, Jackson ImmunoResearch). Imaging was carried out with a digital slide scanner (Olympus, VS120-S6-W) and a confocal microscope (Nikon, Ti-E+A1R SI).

SST neurons in the mPFC = assay: Activation/excitability of mPFC SST neurons after ketamine (c-Fos, patch-clamp); type: in vivo, mice; conditions: after ketamine injection
Method: as §2, §3

VIP neurons in the mPFC = assay: c-Fos immunolabeling of mPFC VIP neurons after ketamine; type: in vivo, mice; conditions: antidepressant dose; 1.5 h after injection; average
Method: as §2, §3

[6] = tested on: 5-HT neurons in the dorsal raphe nucleus (DRN); assay: c-Fos activation of DRN 5-HT neurons after ketamine; type: in vivo, mice; conditions: after ketamine injection
Method: as §3

[7] = palonosetron into mPFC before ketamine

O=C1c2cccc3c2[C@H](CCC3)CN1[C@@H]1CN2CCC1CC2 [palonosetron]
percentage of firing VIP neurons (mPFC VIP neurons [1]; palonosetron into mPFC 0.5 h before ketamine i.p., controls ∼10.5%): ~10%
change in RMP of VIP neurons (mPFC VIP neurons [1]; [7]): no change in the RMP
change in membrane capacitance of VIP neurons (mPFC VIP neurons [1]; [7]): moderate increase in membrane capacitance
change in membrane resistance of VIP neurons (mPFC VIP neurons [1]; [7]): no change in membrane resistance
locomotion and anxiety-like behaviors during the OFT (mice [2]): did not affect locomotion or cause anxiety-like behaviors
effect of pre-treatment on ketamine's decrease of immobility in TST and FST (mice [2]): this effect was blocked
effect on VIP neuron activation by 5-HT combined with AP5 (mPFC VIP neurons [3]; palonosetron 10 μM): blocked the effect of 5-HT combined with AP5

C[C@]12N[C@H](Cc3ccccc31)c1ccccc12 [MK-801]
antidepressant effects after 24 h (mice [4]): does not result in antidepressant effects

C[N+]1([O-])CCN(C2=Nc3cc(Cl)ccc3Nc3ccccc32)CC1 [CNO, clozapine N-oxide]
mPFC VIP neuron activity in brain slices [5]: significantly inhibited

NC(Cc1ccc(Cl)cc1)C(=O)O (racemic) [p-CPA, 4-chloro-DL-phenylalanine]
number of spikes in response to depolarizing current pulses (mPFC VIP neurons [1]; 1 h after injection): decreased
resting membrane potential (RMP) of VIP neurons, average (mPFC VIP neurons [1]; 1 h after injection): −69.7 mV
locomotion and anxiety-like behaviors during the OFT (mice [2]): did not affect locomotion or cause anxiety-like behaviors
effect of pre-treatment on ketamine's decrease of immobility in TST and FST (mice [2]): attenuated the ketamine-related decrease in the duration of immobility

NCCc1c[nH]c2ccc(O)cc12 [5-HT, serotonin]
activation (firing) of VIP neurons (mPFC VIP neurons [3]): did not activate VIP neurons

CC12CC3CC(C)(C1)CC(N)(C3)C2 [memantine]
average relative-to-baseline 5-HT levels in the mPFC (mPFC 5-HT): did not show such an effect

NC(CCCP(=O)(O)O)C(=O)O (centres unmarked) [AP5]
resting membrane potential (RMP) of VIP neurons, average (mPFC VIP neurons [1]; 1 h after injection): –65.1 mV
activation (firing) of VIP neurons (mPFC VIP neurons [3]): did not activate VIP neurons

CNCCC(Oc1ccc(C(F)(F)F)cc1)c1ccccc1 (centres unmarked) [fluoxetine]
antidepressant effects after 24 h (mice [4]): does not result in antidepressant effects

CNC1(c2ccccc2Cl)CCCCC1=O (centres unmarked) [ketamine]
number of spikes in response to depolarizing current pulses (mPFC VIP neurons [1]; 1 h after injection): remarkable increase
percentage of firing VIP neurons (mPFC VIP neurons [1]; 1 h after injection, ketamine 10 mg/kg i.p., p-CPA 150 mg/kg once daily 3 days, AP5 40 nmol mPFC, fluoxetine 10 mg/kg i.p.): 75%
resting membrane potential (RMP) of VIP neurons, average (mPFC VIP neurons [1]; 1 h after injection): −44.2 mV
membrane capacitance of VIP neurons (mPFC VIP neurons [1]; firing neurons after ketamine): no change in membrane capacitance
changes in electrophysiological characteristics of excitability of PV neurons (PV neurons in the mPFC): neither PV nor SST neurons showed any changes
changes in electrophysiological characteristics of excitability of SST neurons (SST neurons in the mPFC): neither PV nor SST neurons showed any changes
VIP neurons activated (c-Fos+ among VIP neurons) (VIP neurons in the mPFC): 38.8%
activation of DRN 5-HT neurons [6]: did not activate
